Columns and labels:
[1] = tested on: Mycobacterium tuberculosis Erdman (autoluminescent); test: Einf, fitted maximum growth inhibition of three-drug combination (fraction); higher = stronger maximal inhibition
Description: (§1)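 DiaMOND equipotent three-drug combination dose responses (10 doses, 1.5- or 2-fold spacing, centred on IC90) against autoluminescent M. tuberculosis Erdman in 8 in vitro models. Read-out is OD600, or luminescence for the intracellular and dormancy models, normalised to untreated wells. Hill-fit Einf, AUC25 and GRinf are potency metrics; FIC50 and FIC90 are total Loewe fractional inhibitory concentrations as log2 (negative = synergy).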

[2] = tested on: Mycobacterium tuberculosis Erdman (autoluminescent); test: total FIC90 (Loewe) at 90% inhibition, three-drug combination (log2); higher = more antagonistic
Description: as §1

[3] = tested on: Mycobacterium tuberculosis Erdman (autoluminescent); test: total FIC50 (Loewe) at 50% inhibition, three-drug combination (log2); higher = more antagonistic
Description: as §1

[4] = tested on: Mycobacterium tuberculosis Erdman (autoluminescent); test: GRinf, maximum normalised growth rate inhibition (three-drug combination) (unitless (-1 to 1)); higher = less effect (negative = killing)
Description: as §1

[5] = tested on: Mycobacterium tuberculosis Erdman (autoluminescent); test: AUC25, normalised area under dose response up to IC25 (three-drug combination) (fraction (0-1)); higher = more potent at low dose
Description: as §1

COc1nc2ccc(Br)cc2cc1[C@@H](c1ccccc1)[C@@](O)(CCN(C)C)c1cccc2ccccc12 [bedaquiline] + O=[N+]([O-])c1cn2c(n1)OC[C@@H](OCc1ccc(OC(F)(F)F)cc1)C2 [pretomanid] + CO[C@H]1/C=C/O[C@@]2(C)Oc3c(C)c(O)c4c(O)c(c(/C=N/N5CCN(C6CCCC6)CC5)c(O)c4c3C2=O)NC(=O)/C(C)=C\C=C\[C@H](C)[C@H](O)[C@@H](C)[C@@H](O)[C@@H](C)[C@H](OC(C)=O)[C@@H]1C [rifapentine]
Settings | AUC25, [5] | Einf, [1] | GRinf, [4] | total FIC50, [3] | total FIC90, [2]
in vitro model: acidic pH 5.7, time point: constant (~7 days, model-specific) | 0.116 | 0.943 | -0.512 | 0.516 | –
in vitro model: acidic pH 5.7, time point: terminal (~4-5 doublings, model-specific) | 0.0913 | 0.987 | -0.4 | 0.436 | 0.698
in vitro model: intracellular J774, time point: constant = terminal | – | 0.985 | -0.531 | – | 0.0139

Settings | AUC25, [5] | Einf, [1] | GRinf, [4] | total FIC50, [3] | total FIC90, [2]
in vitro model: butyrate, time point: constant (~7 days, model-specific) | 0.088 | 0.933 | -0.0563 | 0.655 | 0.181
in vitro model: butyrate, time point: terminal (~4-5 doublings, model-specific) | 0.0789 | 0.971 | -0.0507 | 0.541 | 0.744
in vitro model: cholesterol 0.05 mM, time point: constant (~7 days, model-specific) | 0.106 | 0.751 | -0.236 | 0.454 | –
in vitro model: cholesterol 0.05 mM, time point: terminal (~4-5 doublings, model-specific) | 0.0678 | 0.929 | -0.207 | 0.994 | 0.888
in vitro model: cholesterol-high 0.2 mM, time point: constant (~7 days, model-specific) | 0.0733 | 0.918 | -0.21 | 1.12 | 1.36
in vitro model: cholesterol-high 0.2 mM, time point: terminal (~4-5 doublings, model-specific) | 0.0496 | 0.999 | -0.642 | 1.19 | 0.947
in vitro model: dormancy (butyrate + nitrate, low O2), time point: constant (~7 days, model-specific) | 0.0511 | 0.899 | 0.22 | 0.0544 | -0.43
in vitro model: dormancy (butyrate + nitrate, low O2), time point: terminal (~4-5 doublings, model-specific) | 0.032 | 0.983 | -0.177 | 0.0788 | -0.459
in vitro model: standard 7H9 glycerol, time point: constant = terminal | 0.072 | 0.922 | -0.0207 | -0.0622 | 0.308
in vitro model: valerate, time point: constant (~7 days, model-specific) | 0.0905 | 0.904 | -0.217 | 1.07 | –
in vitro model: valerate, time point: terminal (~4-5 doublings, model-specific) | 0.0466 | 0.947 | -0.0362 | 1.15 | 0.748

COc1nc2ccc(Br)cc2cc1[C@@H](c1ccccc1)[C@@](O)(CCN(C)C)c1cccc2ccccc12 [bedaquiline] + O=[N+]([O-])c1cn2c(n1)OC[C@@H](OCc1ccc(OC(F)(F)F)cc1)C2 [pretomanid] + CO[C@H]1/C=C/O[C@@]2(C)Oc3c(C)c(O)c4c(O)c(c(/C=N/N5CCN(C)CC5)c(O)c4c3C2=O)NC(=O)/C(C)=C\C=C\[C@H](C)[C@H](O)[C@@H](C)[C@@H](O)[C@@H](C)[C@H](OC(C)=O)[C@@H]1C [rifampicin]
Settings | AUC25, [5] | Einf, [1] | GRinf, [4] | total FIC50, [3] | total FIC90, [2]
in vitro model: acidic pH 5.7, time point: constant (~7 days, model-specific) | 0.111 | 0.938 | -0.379 | 0.68 | –
in vitro model: acidic pH 5.7, time point: terminal (~4-5 doublings, model-specific) | 0.0826 | 0.993 | -0.38 | 0.724 | 0.613
in vitro model: intracellular J774, time point: constant = terminal | – | 0.978 | -0.416 | – | -0.222

Settings | AUC25, [5] | Einf, [1] | GRinf, [4] | total FIC50, [3] | total FIC90, [2]
in vitro model: butyrate, time point: constant (~7 days, model-specific) | 0.106 | 0.931 | -0.0326 | 0.367 | 0.71
in vitro model: butyrate, time point: terminal (~4-5 doublings, model-specific) | 0.0986 | 0.977 | -0.041 | 0.237 | 0.69
in vitro model: cholesterol 0.05 mM, time point: constant (~7 days, model-specific) | 0.116 | 0.764 | -0.188 | 0.697 | –
in vitro model: cholesterol 0.05 mM, time point: terminal (~4-5 doublings, model-specific) | 0.0763 | 0.813 | 0.0382 | 0.812 | -0.454
in vitro model: cholesterol-high 0.2 mM, time point: constant (~7 days, model-specific) | 0.0584 | 0.921 | -0.229 | 1.22 | 1.66
in vitro model: cholesterol-high 0.2 mM, time point: terminal (~4-5 doublings, model-specific) | 0.0574 | 1 | -0.652 | 1.17 | 0.914
in vitro model: dormancy (butyrate + nitrate, low O2), time point: constant (~7 days, model-specific) | 0.0611 | 0.9 | 0.255 | 0.0572 | -0.559
in vitro model: dormancy (butyrate + nitrate, low O2), time point: terminal (~4-5 doublings, model-specific) | 0.0439 | 0.982 | -0.104 | 0.00851 | -0.259
in vitro model: standard 7H9 glycerol, time point: constant = terminal | 0.0794 | 0.937 | -0.1 | 0.14 | -0.371
in vitro model: valerate, time point: constant (~7 days, model-specific) | 0.103 | 0.897 | -0.11 | 1.04 | –
in vitro model: valerate, time point: terminal (~4-5 doublings, model-specific) | 0.0424 | 0.951 | -0.0825 | 1.09 | 0.566

COc1nc2ccc(Br)cc2cc1[C@@H](c1ccccc1)[C@@](O)(CCN(C)C)c1cccc2ccccc12 [bedaquiline] + O=[N+]([O-])c1cn2c(n1)OC[C@@H](OCc1ccc(OC(F)(F)F)cc1)C2 [pretomanid] + NC(=O)c1cnccn1 [pyrazinamide]
Settings | AUC25, [5] | Einf, [1] | GRinf, [4] | total FIC50, [3] | total FIC90, [2]
in vitro model: acidic pH 5.7, time point: constant (~7 days, model-specific) | 0.0919 | 0.881 | -0.623 | 0.152 | -0.764
in vitro model: acidic pH 5.7, time point: terminal (~4-5 doublings, model-specific) | 0.0867 | 0.983 | -0.421 | 0.197 | 0.0646
in vitro model: intracellular J774, time point: constant = terminal | – | 0.972 | -0.386 | – | 0.176

Settings | AUC25, [5] | Einf, [1] | GRinf, [4] | total FIC50, [3] | total FIC90, [2]
in vitro model: butyrate, time point: constant (~7 days, model-specific) | 0.119 | 0.946 | -0.193 | -0.0189 | 1.37
in vitro model: butyrate, time point: terminal (~4-5 doublings, model-specific) | 0.102 | 0.978 | -0.539 | 0.212 | 1.21
in vitro model: cholesterol 0.05 mM, time point: constant (~7 days, model-specific) | 0.115 | 0.748 | -0.231 | – | –
in vitro model: cholesterol 0.05 mM, time point: terminal (~4-5 doublings, model-specific) | 0.106 | 0.909 | -0.185 | 0.657 | –
in vitro model: cholesterol-high 0.2 mM, time point: constant (~7 days, model-specific) | 0.0759 | 0.934 | -0.252 | 0.548 | –
in vitro model: cholesterol-high 0.2 mM, time point: terminal (~4-5 doublings, model-specific) | 0.0678 | 0.998 | -0.58 | 0.646 | 0.318
in vitro model: dormancy (butyrate + nitrate, low O2), time point: constant (~7 days, model-specific) | 0.043 | 0.896 | 0.257 | -0.949 | -1.45
in vitro model: dormancy (butyrate + nitrate, low O2), time point: terminal (~4-5 doublings, model-specific) | 0.0578 | 0.983 | -0.0996 | -1.05 | -1.31
in vitro model: standard 7H9 glycerol, time point: constant = terminal | 0.0709 | 0.957 | -0.0903 | -0.132 | –
in vitro model: valerate, time point: constant (~7 days, model-specific) | 0.0952 | 0.866 | -0.0433 | 0.178 | –
in vitro model: valerate, time point: terminal (~4-5 doublings, model-specific) | 0.062 | 0.938 | -0.0146 | 0.143 | -0.0602

— the supplement of paper PMC8617591
